Laboratory results taken from patent US5859036A, “3,4-diarylthiazolin-2-one or -2-thione derivatives, their methods of preparation and their uses in their methods of preparation and their uses in therapeutics” (Laboratories UPSA, priority 1997, dated 1999).

Assays:
COX-2 = target: T1, COX-2 (Ovis aries, UniProt P79208); assay: Inhibition of COX-2 enzymatic activity (purified enzyme from ewe placenta, PGE2 by EIA); format: biochemical; conditions: for IC50: 1 U COX-2, 10 min preincubation at 25° C., 4 μM arachidonic acid, 5 min, n=1 to 4; for Selectivity COX-1/COX-2 ratio: ratio of IC50 COX-1 / IC50 COX-2
T1 construct: purified enzyme from ewe placenta; from tissue; host or cells: ewe placenta
T1 sequence (P79208 17-603): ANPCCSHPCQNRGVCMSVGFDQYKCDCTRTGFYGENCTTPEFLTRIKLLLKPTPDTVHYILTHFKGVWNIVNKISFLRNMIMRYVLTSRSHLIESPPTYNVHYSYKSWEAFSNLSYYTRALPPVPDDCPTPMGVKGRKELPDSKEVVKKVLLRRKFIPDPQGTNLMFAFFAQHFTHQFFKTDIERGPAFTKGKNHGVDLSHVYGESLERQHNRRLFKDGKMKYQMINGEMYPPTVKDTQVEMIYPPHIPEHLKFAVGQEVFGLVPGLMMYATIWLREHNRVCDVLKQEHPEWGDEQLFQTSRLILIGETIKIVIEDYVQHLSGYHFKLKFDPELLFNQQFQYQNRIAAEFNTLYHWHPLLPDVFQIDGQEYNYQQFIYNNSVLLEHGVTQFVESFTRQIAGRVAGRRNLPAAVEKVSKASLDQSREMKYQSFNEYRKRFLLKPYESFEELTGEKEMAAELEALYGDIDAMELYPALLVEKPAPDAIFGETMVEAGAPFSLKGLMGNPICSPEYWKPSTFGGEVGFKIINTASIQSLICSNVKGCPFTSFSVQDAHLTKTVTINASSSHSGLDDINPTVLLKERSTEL
Description: (§1) Inhibition of the COX-1 and COX-2 enzymatic activities The molecule studied is preincubated for 10 minutes at 25° C. with 2 U of COX-1 (purified enzyme from ram seminal vesicles) or 1 U of COX-2 (purified enzyme from ewe placenta). Arachidonic acid (6 μM for COX-1,4 μM for COX-2) is added to the reaction medium and incubation is carried out for 5 minutes at 25° C. When incubation has ended, the enzymatic reaction is stopped by the addition of 1 N HCl and the PGE2 produced is determined by EIA. The results are expressed in the form of IC50, concentration in […] corresponding to 50% inhibition of the maximal enzymatic activity upon COX-1 and COX-2 (n=1 to 4 determinations).

COX-1 = target: T2, COX-1 (Ovis aries, UniProt P05979); assay: Inhibition of COX-1 enzymatic activity (purified enzyme from ram seminal vesicles, PGE2 by EIA); format: biochemical; conditions: 2 U COX-1, 10 min preincubation at 25° C., 6 μM arachidonic acid, 5 min; n=1 to 4
T2 construct: purified enzyme from ram seminal vesicles; from tissue; host or cells: ram seminal vesicles
T2 sequence (P05979 25-600): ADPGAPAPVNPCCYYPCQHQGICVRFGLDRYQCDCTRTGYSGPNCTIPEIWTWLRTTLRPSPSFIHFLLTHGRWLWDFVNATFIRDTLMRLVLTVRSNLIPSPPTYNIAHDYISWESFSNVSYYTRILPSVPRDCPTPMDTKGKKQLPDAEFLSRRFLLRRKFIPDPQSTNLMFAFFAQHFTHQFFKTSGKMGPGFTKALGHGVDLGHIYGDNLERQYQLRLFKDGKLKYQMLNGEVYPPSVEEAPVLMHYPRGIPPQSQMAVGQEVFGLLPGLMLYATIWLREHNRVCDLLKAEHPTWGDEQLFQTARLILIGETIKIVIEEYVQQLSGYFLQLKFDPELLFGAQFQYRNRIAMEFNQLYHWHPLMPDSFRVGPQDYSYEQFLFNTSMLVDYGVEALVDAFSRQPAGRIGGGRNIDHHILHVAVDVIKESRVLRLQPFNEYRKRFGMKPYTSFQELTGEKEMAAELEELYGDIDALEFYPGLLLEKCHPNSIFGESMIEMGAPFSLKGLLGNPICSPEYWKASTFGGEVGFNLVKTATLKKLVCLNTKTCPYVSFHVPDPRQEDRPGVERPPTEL
Description: as §1

[1] = Analgesic activity, test of arthritis with kaolin in rats; format: in vivo; conditions: 0.5 h; rat, oral, 30 min after intra-articular 10% kaolin; dose inducing 50% decrease of the maximal quotations of control
Description: (§2) The anti-inflammatory activity of the compounds of the Examples has been evaluated according to the method of oedema with carrageenan and the analgesic activity has been evaluated according to the method of arthritis with kaolin.
The analgesic activity is evaluated in rats by the test of arthritis with kaolin. Thirty minutes after intra-articular administration of an aqueous 10% suspension of kaolin, the product is administered orally at a rate of 1 ml/ 100 g (n=10 animals per dose). The results are expressed in the form of ED50, the dose in mg/kg which induces 50% decrease of the maximal quotations obtained in the control batch, calculated by linear regression.

[2] = Anti-inflammatory activity, test of oedema with carrageenan in rats; format: in vivo; conditions: rat, oral, product 1 h before plantar injection of 2% carrageenan; dose inducing 50% of the maximal decrease of oedema volume; read-out: Anti-inflammatory Activity ID50
Description: as §2
Anti-inflammatory activity:
The anti-inflammatory activity is evaluated in rats by the test of oedema with carrageenan. The product is administered orally at a rate of 2.5 ml/100 g (n=6 animals per dose) 2 hours 30 minutes after a water overload taken orally (2.5 ml/100 g). One hour after administration of the product, the oedema is induced by plantar subcutaneous injection of aqueous 2% carrageenan solution. The results are expressed as ID50, dose in mg/kg, calculated by linear regression, which induces 50% of the maximal decrease of the volume of the oedema obtained from each product tested.

Structure (SMILES) | IC50 (COX-2) [nM] | Selectivity COX-1/COX-2 ratio (COX-2) | IC50 (COX-1) [µM] | ED50 [1] [mg/kg] | ED50 [2] [mg/kg]
NS(=O)(=O)c1ccc(-c2csc(=S)n2-c2ccc(F)c(F)c2)cc1 [Example 30] | 210 | 94 | 19.8 |  | 
CS(=O)(=O)c1ccc(-c2csc(=S)n2-c2cccc(Cl)c2)cc1 [Example 9] | 3340 | 30 | 100 |  | 
NS(=O)(=O)c1ccc(-c2csc(=S)n2-c2cccc(F)c2)cc1 [Example 29] | 650 | 396 | 258 |  | 
COc1ccc(-n2c(-c3ccc(S(N)(=O)=O)cc3)csc2=S)cc1Cl [Example 20] | 2000 | 9 | 17.6 |  | 
NS(=O)(=O)c1ccc(-c2csc(=S)n2-c2ccc(F)cc2)cc1 [Example 13] | 930 | 34 | 32 |  | 

Continued, in another order:

IC50 (COX-2) [nM] | Selectivity COX-1/COX-2 ratio (COX-2) | IC50 (COX-1) [µM] | Structure (SMILES) | ED50 [1] [mg/kg] | ED50 [2] [mg/kg]
570 | 286 | 163 | CS(=O)(=O)c1ccc(-c2csc(=O)n2-c2ccc(Cl)cc2)cc1 [Example 46] |  | 
240 | 1367 | 335 | NS(=O)(=O)c1ccc(-c2csc(=O)n2-c2cccc(F)c2)cc1 [Example 45] | 1.3 | 2.8
140 | 14 | 1.94 | NS(=O)(=O)c1ccc(-c2csc(=O)n2-c2ccc(Cl)c(Cl)c2)cc1 [Example 39] |  | 
